Key:
[1] = tested on: 231MFP breast cancer cells; test: Metabolomic profiling (SRM-based LC-MS/MS) in 231MFP cells; type: cell-based; details: 5 h
Protocol: For polar metabolites, cell pellets were extracted in a mixture of acetonitrile/methanol/water (40:40:20), with inclusion of D3-15N-serine (10 nM) as an internal standard. Insoluble debris was separated via centrifugation at 13,000 rpm for 10 minutes. For nonpolar metabolites, metabolomes were extracted in 2:1 chloroform:methanol (3 ml) and PBS (1 ml) with inclusion of dodecylglycerol (10 nmol) and pentadecanoic acid (10 nmol) as internal standards. Organic and aqueous layers were separated by centrifugation at 1000×g for 5 minutes; the organic layer was collected, dried under a stream of nitrogen, and then dissolved in chloroform (120 μl). An aliquot of the nonpolar or polar extracts were then injected into an Agilent 6460 or 6430 QQQ-LC/MS/MS system. Separation of polar metabolites was achieved using normal-phase chromatography with a Luna NH2 column (5 mm) using a mobile phase (Buffer A: acetonitrile; Buffer B, 95:5 water/acetonitrile; with a modifier of 0.1% formic acid or 0.2% ammonium hydroxide) along with ammonium acetate (50 mM) for positive and negative ionization mode, respectively. The following gradient was used for each run: 0% B for 5 minutes (flow rate: 0.2 mL/min), 0% B to 100% B (linear) over 15 min (flow rate: 0.7 mL/min), then followed by an isocratic gradient of 100% B for 5 minutes (flow rate: 0.7 mL/min) and then 0% B for 5 minutes (flow rate of 0.7 mL/min). For nonpolar metabolites, metabolomes were separated using reverse-phase chromatography with a Luna C5 column (50 mm×4.6 mm with 5 μm diameter particles). Mobile phase A consisted of 95:5 ratio of water/methanol and mobile phase B consisted of 2-propanol, methanol, and water in a 60:35:5 ratio. Solvent modifiers of 0.1% formic acid, 5 mM ammonium formate, and 0.1% ammonium hydroxide were used to assist ion formation as well as to improve the LC resolution in both positive and negative ionization modes, respectively. The flow rate for each run started at 0.1 ml/min for 5 minutes to alleviate backpressure associated with injecting chloroform. The gradient started at 0% B and increased linearly to 100% B over the course of 45 min with a flow rate of 0.4 ml/min, followed by an isocratic gradient of 100% B for 17 minutes at 0.5 ml/min before equilibrating for 8 minutes at 0% B with a flow rate of 0.5 ml/min.
MS analysis was performed with an electrospray ionization (ESI) source on an Agilent 6430 or 6460 QQQ LC-MS/MS system. The capillary voltage was set to 3.0 kV, and the fragmentor voltage was set to 100 V. The drying gas temperature was 350° C., the drying gas flow rate was 10 L/min, and the nebulizer pressure was 35 psi. […] Metabolite levels are expressed as relative abundances as compared to controls.

[2] = tested on: cysteines profiled in 231MFP cells; test: isoTOP-ABPP proteome-wide selectivity; type: binding; details: 100 μM, out of >1000 cysteines profiled
Protocol: IsoTOP-ABPP studies were performed using the methods described in “Nature 534(7608), 570-574 (2016)” by Backus K. M., et al. and “Nature 468(7325), 790-795 (2010)” by Weerapana E., et al. Proteome samples diluted in PBS were treated with Withaferin A or vehicle for 30 minutes at 37° C. Then, IAyne (iodoacetamide-alkyne) labeling was performed for 1 hour at room temperature. CuAAC was used by sequential addition of tris(2-carboxyethyl)phosphine (1 mM), tris[(1-benzyl-1H-1,2,3-triazol-4-yl)methyl]amine (34 μM), copper (II) sulfate (1 mM), and biotin-linker-azide where the linker was functionalized with a TEV protease recognition sequence along with an isotopically light or heavy valine for treatment of control or treated proteome, respectively. After click reactions, proteomes were precipitated by centrifugation at 6500×g, washed in ice-cold methanol, combined in a 1:1 control/treated ratio, washed again, then denatured and re-solubilized by heating in 1.2% SDS/PBS to 80° C. for 5 minutes. […]
Peptides from all proteomic experiments were pressure-loaded onto an Agilent 600 series RP-HPLC system equipped with a capillary tubing (250 mm) packed with Aqua C18 reverse-phase resin (4 cm). […] Samples were analyzed using an Q Exactive Plus mass spectrometer using a 5-step Multidimensional Protein Identification Technology (MudPIT) program. […]

| SMILES | ATP level ([1]; 10 μM) | LPA (lysophosphatidic acid) level ([1]; 10 μM) | acetyl CoA level ([1]; 10 μM) | lactic acid level ([1]; 10 μM) | phosphoenolpyruvate level ([1]; 10 μM) | phosphoglycerate level ([1]; 10 μM) | total sites showing >5 light to heavy ratio [2] | ATP level ([1]; 100 μM) | LPA (lysophosphatidic acid) level ([1]; 100 μM) | acetyl CoA level ([1]; 100 μM) | lactic acid level ([1]; 100 μM) | phosphoenolpyruvate level ([1]; 100 μM) | phosphoglycerate level ([1]; 100 μM) |
| --- | --- | --- | --- | --- | --- | --- | --- | --- | --- | --- | --- | --- | --- |
| CC1=C(CO)C(=O)O[C@@H]([C@@H](C)[C@H]2CC[C@H]3[C@@H]4C[C@H]5O[C@]56[C@@H](O)C=CC(=O)[C@]6(C)[C@H]4CC[C@]23C)C1 [withaferin A, reference compound] | Reductions | reductions | reduced | reduced | reduced | reduced | – | – | – | – | – | – | – |
| O=C(CCl)Nc1ccc2c(c1)OCCO2 [DKM 2-90, 2-Chloro-N-(2,3-dihydrobenzo[β][1,4]dioxin-6-yl)acetamide] | – | – | – | – | – | – | 5 | Reductions | reductions | reduced | reduced | reduced | reduced |
| O=C(CCl)N(Cc1ccccc1)c1ccc2c(c1)OCCO2 [JNS 1-40, N-benzyl-2-chloro-N-(2,3-dihydrobenzo[b][1,4]dioxin-6-yl)acetamide] | – | – | – | – | – | – | only target | – | – | – | – | – | – |
